Entries after “also recorded” stand apart in the source; their conditions may differ. Where two headings read alike, the source gives them in different places.
How the values were obtained:
[1] = tested on: wild-type (AB) zebrafish (Danio rerio); assay: Maximum tolerated concentration (MTC) determination in zebrafish larvae; type: in vivo; conditions: for MTC (maximum tolerated concentration): 5 dpf zebrafish larvae, after 24-hr exposure; for signs of toxicity (in words): zebrafish, concentrations up to 30 μM, the highest concentration tested
Experimental: Determination of maximum tolerated concentration (adapted from Berghmans)[52] was completed by placing 5 days post fertilization (dpf) wild-type zebrafish larvae in a 24 well plate at 6 fish per well, and one compound concentration per well. […] Death was determined by the absence of heartbeat. Additional endpoints were used to assess toxicity at non-lethal concentrations such as startle capacity (poke stimulus), abnormalities in swimming behavior (loss of dorsoventral balance), and gross morphological deformities (bent body). […] The MTC determination was used to select three doses of each compound (low, medium, high dose) to be used in behavioral assays.

[2] = tested on: wild-type (AB) zebrafish (Danio rerio); type: in vivo; conditions: zebrafish larvae; 30-minute spontaneous swimming period; mean ± s.e.m., N = 12; test concentration not given
[3] = target: T1, human M1 muscarinic receptors (Homo sapiens, UniProt P11229); assay: [3H]-arachidonic acid release in CHO cells expressing M1 receptors, with and without ACh; type: cell-based; set-up: expressed in transfected cells; host or cells: CHO cells (stably transfected CHO-hM1, from Mark Brann's laboratory, NIH); conditions: for intrinsic agonist activity (in words): [3H]AA release in the absence of ACh, 10 µM; for modulation of ACh response (in words): modulators at 10 µM (amiodarone 30 µM)
T1 sequence (P11229 1-460): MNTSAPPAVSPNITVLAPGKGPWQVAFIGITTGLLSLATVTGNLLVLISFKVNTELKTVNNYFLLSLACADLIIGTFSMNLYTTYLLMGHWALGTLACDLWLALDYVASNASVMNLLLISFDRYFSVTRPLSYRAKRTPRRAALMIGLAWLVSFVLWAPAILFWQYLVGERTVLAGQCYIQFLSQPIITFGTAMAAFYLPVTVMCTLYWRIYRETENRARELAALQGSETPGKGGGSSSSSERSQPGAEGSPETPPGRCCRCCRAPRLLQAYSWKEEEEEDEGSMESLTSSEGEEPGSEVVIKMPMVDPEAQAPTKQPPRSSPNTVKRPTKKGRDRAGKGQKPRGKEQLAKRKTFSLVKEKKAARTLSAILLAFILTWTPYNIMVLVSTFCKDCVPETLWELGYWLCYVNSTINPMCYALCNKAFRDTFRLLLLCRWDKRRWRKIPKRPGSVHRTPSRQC
Experimental: CHO cells expressing human M1 muscarinic receptors were cultured at 37°C in a 5% CO2 atmosphere in F12 medium supplemented with 5% fetal bovine serum, 100 units/mL penicillin, and 100µg/mL streptomycin. These cells were obtained from Mark Brann’s laboratory when they were at NIH and have been in use by us and others for many years.[49]
Measurement of [^3H]AA release was performed as described in Stahl and Ellis.[24] Stably transfected CHO-hM1 cells were seeded on 24-well plates (Greiner Bio-One GmbH, Frickenhausen, Germany) at a density of 5.0 × 10^4 cells/well in 0.5 ml of F-12 medium. Cells were incubated until they attached (approximately 3 h), followed by the addition of [^3H]AA to a final concentration of 0.05 µCi of [^3H]AA per well. The cells were then grown for 16 to 20 h before the assay was performed. [^3H]AA release was measured in Eagle’s basal medium with 20 mM HEPES and 2 mg/ml fatty acid-free bovine serum albumin (EM-BSA). Cells were rinsed twice with EM-BSA, followed by the addition of EM-BSA media containing experimental agents and incubated for 1 h at 37°C. The assay was terminated by aspiration of the media, and the amount of [^3H]AA released was determined by liquid scintillation counting (Beckman-Coulter LS6500). […]
Tabulated [^3H]AA release data are represented as a fraction of maximal release elicited by ACh or as the fraction of release elicited by the relevant concentration of ACh alone, as indicated. Dose-response curves were normalized to the maximal response of ACh without allosteric ligand. Where indicated, response curves were analyzed using the empirical four-parameter equation: […] where X is the concentration of the ligand used, Y is the amount of response, C50 is the concentration of the ligand that produces 50% of the maximal effect, Top and Bottom are the top and bottom plateaus of the curve, and n is related to the Hill slope for the curve. Where indicated, families of response curves were analyzed according to an allosteric operational model:[50],[51]

[4] = tested on: wild-type (AB) zebrafish (Danio rerio); assay: animal or person; type: in vivo; conditions: for effect on locomotor activity and turning behaviors (in words) / concentration with significant effects on zebrafish behavior: AB zebrafish; for effect on locomotor activity and turning behaviors (in words): 30-minute spontaneous swimming period; for concentration with significant effects on zebrafish behavior: compared with BQCA; for EC50: Danio rerio, AB zebrafish larvae; for Therap. Index: zebrafish, apparently MTC / MEC
Experimental: The movement of larval zebrafish was monitored with the Noldus behavior recording system (Noldus Information Technology, Leesburg VA) and quantified using EthoVision® XT 15 software (Noldus Information Technology, Leesburg VA). Five-dpf zebrafish larvae were exposed to a range of nonlethal concentrations of compounds in a 24-well plate with appropriate controls. The plate was immediately placed in the incubator for a 30-minute exposure period. After 30 minutes, the plate was transferred to the Noldus system and swimming behavior was recorded in 100% light for 30 minutes to measure spontaneous swimming behavior. The light was switched off for 10 minutes (dark period) and then switched on for 10 minutes (light period), which was then repeated for two additional cycles. In total, the larvae were exposed to three cycles of alternating 10-minute dark and light periods (100% darkness-to-100% light). Each drug challenge was conducted on three separate plates with n = 6 larvae/dose/plate.
Absolute turn angle (TA) and angular velocity provided measures of the extent of turning behavior, while the intra-individual variance of turn angle quantified how consistently (low variance) or inconsistently (high variance) fish turned. A lowered intra-individual variance of turning reflected repeatedly performing the same turning behavior, a stereotypy.[53]
All data for exposure and the behavioral end points were analyzed by one-way ANOVA (factor: drug concentration) followed by a Dunnett’s multiple comparisons test for post hoc significance between drug concentration and control group. Statistically significant differences are noted as follows; *, p < 0.05; **, p < 0.01; ***, p < 0.001.

[5] = target: T1, human M1 muscarinic receptors; assay: Full ACh dose-response curves of [3H]AA release fitted to an allosteric operational model
Experimental: Tabulated [^3H]AA release data are represented as a fraction of maximal release elicited by ACh or as the fraction of release elicited by the relevant concentration of ACh alone, as indicated. Dose-response curves were normalized to the maximal response of ACh without allosteric ligand. Where indicated, response curves were analyzed using the empirical four-parameter equation: Y=Top+Bottom−Top/1+X/C50^n where X is the concentration of the ligand used, Y is the amount of response, C50 is the concentration of the ligand that produces 50% of the maximal effect, Top and Bottom are the top and bottom plateaus of the curve, and n is related to the Hill slope for the curve. Where indicated, families of response curves were analyzed according to an allosteric operational model:[50],[51]
where EM is the maximal response; A is the concentration of ACh; B is the concentration of the allosteric ligand; τA and τB represent the operational efficacies of A and B, respectively; KA and KB are the equilibrium dissociation constants of A and B; and α and β represent the cooperativities between A and B in terms of binding and activation, respectively. Curve-fitting was carried out with GraphPad Prism, version 5.0 or 6.0 (San Diego CA).

[6] = best-fit parameter, allosteric operational model, Em set to 2.0, ACh as agonist
[7] = read-out: EC50 for decreasing locomotor activity
[8] = read-out: EC50 for decreasing repetitive behaviors (increasing angular velocity)

Row | Molecule | MTC (maximum tolerated concentration) [1] [µM] | Angular Velocity, percentage change relative to controls [2] [%] | Distance Moved, percentage change relative to controls [2] [%] | Variance Turn Angle, percentage change relative to controls [2] [%] | intrinsic agonist activity (in words) [3] | increase in mAChR activity compared to treatment with ACh alone ([3]; [3H]AA release, CHO-hM1, predominantly at higher doses of ACh (Table 2, not available)) [%] | effect on locomotor activity and turning behaviors (in words) [4] | Kd [5] [nM] | Activation cooperativity, A-B, β [5, 6] | Binding cooperativity, A-B, α [5, 6] | Operational Efficacy-B, τB [5, 6] | modulation of ACh response (in words) ([3]; [3H]AA release, CHO-hM1) | signs of toxicity (in words) [1] | concentration with significant effects on zebrafish behavior [4] [µM] | EC50 [4, 7] [nM] | EC50 [4, 8] [nM] | Therap. Index [4] | Kb [5] [nM] | MEC ([4]; zebrafish larvae, locomotor behaviors, abbreviation not defined in the paper) [µM]
1 | CCCCc1oc2ccccc2c1C(=O)c1cc(I)c(OCCN(CC)C(=O)c2ccccc2)c(I)c1 [Compound 5b, N-(2-(4-(2-butylbenzofuran-3-carbonyl)-2,6-diiodophenoxy)ethyl)-N-ethylbenzamide] | 10 | 80.4 ± 11.5 | 87.7 ± 13.5 | 77.8 ± 9.3 | lacked intrinsic activity | 80 |  |  |  |  |  |  |  |  |  |  |  |  | 
2 | CCN(CC)CCOc1ccc(CN2C(=O)C(=O)c3ccccc32)cc1 [Compound 7, 1-(4-(2-(diethylamino)ethoxy)benzyl)indoline-2,3-dione] | 10 |  |  |  | lacked intrinsic activity |  | not effective in reducing locomotor activity or elevating angular velocity or variance of turn angle | 631 | 0.99 ± 0.12 | 0.18 ± 0.095 | 0.032 ± 0.02 | primarily decreased potency and slightly enhanced the efficacy of ACh activity; also recorded: decreased ACh potency with little impact on ACh efficacy |  |  |  |  |  |  | 
3 | COc1c(I)cc(CN2C(=O)C(=O)c3ccccc32)cc1I [Compound 8a, 1-(3,5-diiodo-4-methoxybenzyl)indoline-2,3-dione] | > 30 |  |  |  |  |  | reduced locomotor activity | 550 |  | 0.69 ± 0.24 | 0.17 ± 0.03 | significant enhancement of ACh activity; also recorded: dramatically enhanced ACh efficacy | neither produced any signs of toxicity | 1 | 5600 | 2600 | > 100 | 550 | 
4 | COc1c(Br)cc(CN2C(=O)C(=O)c3ccccc32)cc1Br [Compound 8c, 1-(3,5-dibromo-4-methoxybenzyl)indoline-2,3-dione] | > 30 |  |  |  |  |  |  | 2950 |  | 0.98 ± 0.39 | 0.33 ± 0.06 | dramatically enhanced ACh efficacy | neither produced any signs of toxicity | 1 | 1000 | 1100 |  | 3000 | 
5 | VU0238408 [reference compound] | 30 | 180.1 ± 20.3 | 34.6 ± 4.0 | 146.6 ± 12.4 |  |  |  |  |  |  |  |  |  |  |  |  | 30 |  | 1

From PMC10896388, “Hybrid Allosteric Modulators of M1 Muscarinic Receptors Enhance Acetylcholine Efficacy and Decrease Locomotor Activity and Turning Behaviors in Zebrafish” (Research Square, 2024)
